Measurements as given in ChEMBL document CHEMBL1201861, “Genomics of Drug Sensitity in Cancer screening data, Wellcome Trust Sanger Institute”.

Experiments:
SIMA = assay: cells; format: functional, cell-based, Homo sapiens; settings: Homo sapiens, SIMA;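 note: growth inhibition of SIMA cells, measured with a cell viability readout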
Description: SANGER: Inhibition of human SIMA cell growth in a cell viability assay.

NCI-H128 = assay: SANGER: Inhibition of human NCI-H128 cell growth in a cell viability assay.; format: functional, cell-based
REH = assay: cells; format: functional, cell-based, Homo sapiens; settings: Homo sapiens, REH;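 note: growth inhibition of REH cells determined with a cell viability read-out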
Description: SANGER: Inhibition of human REH cell growth in a cell viability assay.

KARPAS-422 = assay: cells; format: functional, cell-based, Homo sapiens; settings: Homo sapiens, KARPAS-422
Description: SANGER: Inhibition of human KARPAS-422 cell growth in a cell viability assay.

CA46 = assay: cells; format: functional, cell-based, Homo sapiens; settings: Homo sapiens, CA46;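 note: growth inhibition of human CA46 cells, read out by a cell viability assay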
Description: SANGER: Inhibition of human CA46 cell growth in a cell viability assay.

639-V = assay: cells; format: functional, cell-based, Homo sapiens; settings: Homo sapiens, 639-V;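 note: growth inhibition of 639-V cells, read out with a cell viability assay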
Description: SANGER: Inhibition of human 639-V cell growth in a cell viability assay.

OVCAR-8 = assay: cells; format: functional, cell-based, Homo sapiens; settings: Homo sapiens, OVCAR-8;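 note: growth inhibition of human OVCAR-8 cells, read out by a cell viability assay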
Description: SANGER: Inhibition of human OVCAR-8 cell growth in a cell viability assay.

OVCAR-3 = assay: cells; format: functional, cell-based, Homo sapiens; settings: Homo sapiens, OVCAR-3;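 note: growth inhibition of human OVCAR-3 cells, determined by a cell viability assay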
Description: SANGER: Inhibition of human OVCAR-3 cell growth in a cell viability assay.

OAW-28 = assay: cells; format: functional, cell-based, Homo sapiens; settings: Homo sapiens, OAW-28;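 note: growth inhibition of OAW-28 cells, read out with a cell viability assay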
Description: SANGER: Inhibition of human OAW-28 cell growth in a cell viability assay.

COLO-680N = assay: cells; format: functional, cell-based, Homo sapiens; settings: Homo sapiens, COLO-680N;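 note: cell viability assay used to measure inhibition of COLO-680N cell growth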
Description: SANGER: Inhibition of human COLO-680N cell growth in a cell viability assay.

EFO-27 = assay: cells; format: functional, cell-based, Homo sapiens; settings: Homo sapiens, EFO-27;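 note: growth inhibition of EFO-27 cells, read out with a cell viability assay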
Description: SANGER: Inhibition of human EFO-27 cell growth in a cell viability assay.

647-V = assay: cells; format: functional, cell-based, Homo sapiens; settings: Homo sapiens, 647-V;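 note: growth inhibition of 647-V cells, read out with a cell viability assay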
Description: SANGER: Inhibition of human 647-V cell growth in a cell viability assay.

LCLC-103H cell line = assay: cells; format: functional, cell-based, Homo sapiens; settings: Homo sapiens, LCLC-103H
Description: SANGER: Inhibition of human LCLC-103H cell growth in a cell viability assay.

ECC10 = assay: cells; format: functional, cell-based, Homo sapiens; settings: Homo sapiens, ECC10;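 note: growth inhibition of ECC10 cells, read out by a cell viability assay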
Description: SANGER: Inhibition of human ECC10 cell growth in a cell viability assay.

HCC1954 = assay: cells; format: functional, cell-based, Homo sapiens; settings: Homo sapiens, HCC1954;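 note: growth inhibition of human HCC1954 cells, read out with a cell viability assay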
Description: SANGER: Inhibition of human HCC1954 cell growth in a cell viability assay.

SK-LU-1 = assay: cells; format: functional, cell-based, Homo sapiens; settings: Homo sapiens, SK-LU-1;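 note: cell viability assay measuring growth inhibition of human SK-LU-1 cells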
Description: SANGER: Inhibition of human SK-LU-1 cell growth in a cell viability assay.

TI-73 = assay: cells; format: functional, cell-based, Homo sapiens; settings: Homo sapiens, TI-73;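 note: cell viability assay measuring how much compounds suppress growth of the cultured cell line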
Description: SANGER: Inhibition of human TI-73 cell growth in a cell viability assay.

IGR-1 = assay: cells; format: functional, cell-based, Homo sapiens; settings: Homo sapiens, IGR-1;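 note: growth inhibition of human IGR-1 cells, read out with a cell viability assay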
Description: SANGER: Inhibition of human IGR-1 cell growth in a cell viability assay.

CAL-51 = assay: cells; format: functional, cell-based, Homo sapiens; settings: Homo sapiens, CAL-51;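 note: human CAL-51 cell line, growth inhibition read out via a cell viability assay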
Description: SANGER: Inhibition of human CAL-51 cell growth in a cell viability assay.

LU-135 = assay: cells; format: functional, cell-based, Homo sapiens; settings: Homo sapiens, LU-135
Description: SANGER: Inhibition of human LU-135 cell growth in a cell viability assay.

8305C = assay: cells; format: functional, cell-based, Homo sapiens; settings: Homo sapiens, 8305C
Description: SANGER: Inhibition of human 8305C cell growth in a cell viability assay.

NCI-H292 = assay: cells; format: functional, cell-based, Homo sapiens; settings: Homo sapiens, NCI-H292;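 note: growth inhibition of NCI-H292 cells, read out with a cell viability assay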
Description: SANGER: Inhibition of human NCI-H292 cell growth in a cell viability assay.

CAL-12T = assay: cells; format: functional, cell-based, Homo sapiens; settings: Homo sapiens, CAL-12T;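 note: growth inhibition of human CAL-12T cells, read out with a cell viability assay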
Description: SANGER: Inhibition of human CAL-12T cell growth in a cell viability assay.

TGBC11TKB = assay: cells; format: functional, cell-based, Homo sapiens; settings: Homo sapiens, TGBC11TKB;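 note: growth inhibition of human TGBC11TKB cells, measured by a cell viability assay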
Description: SANGER: Inhibition of human TGBC11TKB cell growth in a cell viability assay.

BALL-1 = assay: cells; format: functional, cell-based, Homo sapiens; settings: Homo sapiens, BALL-1;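 note: growth inhibition of BALL-1 cells, read out with a cell viability assay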
Description: SANGER: Inhibition of human BALL-1 cell growth in a cell viability assay.

SW900 = assay: cells; format: functional, cell-based, Homo sapiens; settings: Homo sapiens, SW900;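 note: IC50 is the concentration that inhibits SW900 cell growth, measured by a cell viability assay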
Description: SANGER: Inhibition of human SW900 cell growth in a cell viability assay.

VM-CUB-1 = assay: cells; format: functional, cell-based, Homo sapiens; settings: Homo sapiens, VM-CUB-1;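 note: cell viability assay measuring growth inhibition of the human VM-CUB-1 cell line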
Description: SANGER: Inhibition of human VM-CUB-1 cell growth in a cell viability assay.

NCI-H2052 = assay: cells; format: functional, cell-based, Homo sapiens; settings: Homo sapiens, NCI-H2052;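 note: growth inhibition of NCI-H2052 cells, read out with a cell viability assay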
Description: SANGER: Inhibition of human NCI-H2052 cell growth in a cell viability assay.

EPLC-272H = assay: cells; format: functional, cell-based, Homo sapiens; settings: Homo sapiens, EPLC-272H
Description: SANGER: Inhibition of human EPLC-272H cell growth in a cell viability assay.

MKN-45 = assay: cells; format: functional, cell-based, Homo sapiens; settings: Homo sapiens, MKN-45;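 note: growth inhibition of human MKN-45 cells, measured with a cell viability assay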
Description: SANGER: Inhibition of human MKN45 cell growth in a cell viability assay.

NCI-H1048 = assay: cells; format: functional, cell-based, Homo sapiens; settings: Homo sapiens, NCI-H1048;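 note: growth inhibition of human NCI-H1048 cells, read out with a cell viability assay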
Description: SANGER: Inhibition of human NCI-H1048 cell growth in a cell viability assay.

NCI-H1666 = assay: cells; format: functional, cell-based, Homo sapiens; settings: Homo sapiens, NCI-H1666;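 note: growth inhibition of the cell line, read out with a cell viability assay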
Description: SANGER: Inhibition of human NCI-H1666 cell growth in a cell viability assay.

RH-18 = assay: cells; format: functional, cell-based, Homo sapiens; settings: Homo sapiens, Rh18;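 note: growth inhibition of human RH-18 cells, read out with a cell viability assay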
Description: SANGER: Inhibition of human RH-18 cell growth in a cell viability assay.

CAL-27 = assay: cells; format: functional, cell-based, Homo sapiens; settings: Homo sapiens, CAL-27;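 note: Viability-based readout, IC50 reflecting inhibition of CAL-27 cell growth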
Description: SANGER: Inhibition of human CAL-27 cell growth in a cell viability assay.

HuO-3N1 = assay: cells; format: functional, cell-based, Homo sapiens; settings: Homo sapiens, HuO-3N1;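 note: cell viability readout used to measure how strongly compounds suppress proliferation of human HuO-3N1 cells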
Description: SANGER: Inhibition of human HuO-3N1 cell growth in a cell viability assay.

BFTC-905 = assay: cells; format: functional, cell-based, Homo sapiens; settings: Homo sapiens, BFTC-905
Description: SANGER: Inhibition of human BFTC-905 cell growth in a cell viability assay.

MDA-MB-415 = assay: cells; format: functional, cell-based, Homo sapiens; settings: Homo sapiens, MDA-MB-415
BPH-1 = assay: cells; format: functional, cell-based, Homo sapiens; settings: Homo sapiens, BPH-1;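 note: cell viability assay measuring growth inhibition of human BPH-1 cells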
Description: SANGER: Inhibition of human BPH-1 cell growth in a cell viability assay.

NBsusSR = assay: cells; format: functional, cell-based, Homo sapiens; settings: Homo sapiens, NBsusSR;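 note: growth inhibition of the human cell line, read out with a cell viability assay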
Description: SANGER: Inhibition of human NBsusSR cell growth in a cell viability assay.

Structure (SMILES)	IC50 (SIMA)	IC50 (NCI-H128)	IC50 (REH)	IC50 (KARPAS-422)	IC50 (CA46)	IC50 (639-V)	IC50 (OVCAR-8)	IC50 (OVCAR-3)	IC50 (OAW-28)	IC50 (COLO-680N)	IC50 (EFO-27)	IC50 (647-V)	IC50 (LCLC-103H cell line)	IC50 (ECC10)	IC50 (HCC1954)	IC50 (SK-LU-1)	IC50 (TI-73)	IC50 (IGR-1)	IC50 (CAL-51)	IC50 (LU-135)	also measured
COc1cc(N2CCN(C)CC2)ccc1Nc1ncc2c(n1)N(C)c1ccccc1C(=O)N2C	> 8 µM	> 8 µM	> 8 µM	> 8 µM	> 8 µM																
COc1cc(-c2nn([C@H]3CC[C@H](N4CCN(C(C)=O)CC4)CC3)c3ncnc(N)c23)ccc1NC(=O)c1cc2ccccc2n1C	> 5.12 µM	> 5.12 µM	> 5.12 µM	> 5.12 µM	> 5.12 µM																
COc1cc2c(Nc3ccc(NC(=O)c4ccccc4)cc3)ncnc2cc1OCCCN1CCOCC1						> 4 µM	> 4 µM	> 4 µM	> 4 µM	> 4 µM	> 4 µM	> 4 µM	> 4 µM	1.63 µM	> 4 µM	> 4 µM	> 4 µM	> 4 µM	1.84 µM	2.66 µM	IC50 (8305C): > 4 µM; IC50 (NCI-H292): 1.7 µM; IC50 (CAL-12T): > 4 µM; IC50 (TGBC11TKB): > 4 µM; IC50 (BALL-1): > 4 µM; IC50 (SW900): > 4 µM; IC50 (VM-CUB-1): 2.63 µM; IC50 (NCI-H2052): > 4 µM; IC50 (EPLC-272H): > 4 µM; IC50 (MKN-45): > 4 µM; IC50 (NCI-H1048): 1.8 µM; IC50 (NCI-H1666): > 4 µM; IC50 (RH-18): > 4 µM; IC50 (CAL-27): > 4 µM; IC50 (HuO-3N1): > 4 µM; IC50 (BFTC-905): 2.42 µM; IC50 (MDA-MB-415): > 4 µM; IC50 (BPH-1): > 4 µM; IC50 (NBsusSR): 0.914 µM
OCCCNc1cc(-c2ccnc(Nc3cccc(Cl)c3)n2)ccn1	> 0.256 µM	> 0.256 µM	> 0.256 µM	0.0572 µM	> 0.256 µM																
Cc1ccc(-c2c(C(=O)CCl)n(CCCO)c3ncnc(N)c23)cc1	> 4 µM	3.1 µM	> 4 µM	> 4 µM	> 4 µM																
CC(C)CCN1c2nc(Nc3cc(F)c(O)c(F)c3)ncc2N(C)C(=O)C1C (configuration not stated)						2.72 µM	> 5 µM	> 5 µM	> 5 µM	> 5 µM	> 5 µM	> 5 µM	> 5 µM	0.701 µM	4.26 µM	> 5 µM	> 5 µM	4.1 µM	4.87 µM	> 5 µM	IC50 (8305C): 3.89 µM; IC50 (NCI-H292): 1.46 µM; IC50 (CAL-12T): 4.06 µM; IC50 (TGBC11TKB): > 5 µM; IC50 (BALL-1): > 5 µM; IC50 (SW900): > 5 µM; IC50 (VM-CUB-1): > 5 µM; IC50 (NCI-H2052): > 5 µM; IC50 (EPLC-272H): 4.18 µM; IC50 (MKN-45): > 5 µM; IC50 (NCI-H1048): 2.68 µM; IC50 (NCI-H1666): > 5 µM; IC50 (RH-18): > 5 µM; IC50 (CAL-27): > 5 µM; IC50 (HuO-3N1): > 5 µM; IC50 (BFTC-905): 1.56 µM; IC50 (MDA-MB-415): > 5 µM; IC50 (BPH-1): 2.13 µM; IC50 (NBsusSR): 1.83 µM
C#Cc1cccc(Nc2ncnc3cc(OCCOC)c(OCCOC)cc23)c1 [ERLOTINIB]	> 2 µM	> 2 µM	> 2 µM	> 2 µM	> 2 µM																
COc1cc2ncn(-c3cc(OCc4ccccc4S(C)(=O)=O)c(C#N)s3)c2cc1OC [GSK-319347A]	> 5 µM	> 5 µM	> 5 µM	> 5 µM	> 5 µM																
COc1cc2ncn(-c3cc(OCc4ccccc4C(F)(F)F)c(C(N)=O)s3)c2cc1OC [GW843682X]	> 0.256 µM	> 0.256 µM	> 0.256 µM	0.21 µM	> 0.256 µM																
CC1(C)CNc2cc(NC(=O)c3cccnc3NCc3ccncc3)ccc21 [MOTESANIB]						> 2 µM	> 2 µM	> 2 µM	> 2 µM	> 2 µM	> 2 µM	> 2 µM	> 2 µM	> 2 µM	> 2 µM	> 2 µM	> 2 µM	> 2 µM	> 2 µM	> 2 µM	IC50 (8305C): > 2 µM; IC50 (NCI-H292): > 2 µM; IC50 (CAL-12T): > 2 µM; IC50 (TGBC11TKB): > 2 µM; IC50 (BALL-1): > 2 µM; IC50 (SW900): > 2 µM; IC50 (VM-CUB-1): > 2 µM; IC50 (NCI-H2052): > 2 µM; IC50 (EPLC-272H): > 2 µM; IC50 (MKN-45): > 2 µM; IC50 (NCI-H1048): > 2 µM; IC50 (NCI-H1666): > 2 µM; IC50 (RH-18): > 2 µM; IC50 (CAL-27): > 2 µM; IC50 (HuO-3N1): > 2 µM; IC50 (BFTC-905): > 2 µM; IC50 (MDA-MB-415): > 2 µM; IC50 (BPH-1): > 2 µM; IC50 (NBsusSR): > 2 µM
CC(=O)O[C@H]1C(=O)[C@@]2(C)[C@H]([C@H](OC(=O)c3ccccc3)[C@]3(O)C[C@H](OC(=O)[C@H](O)[C@@H](NC(=O)c4ccccc4)c4ccccc4)C(C)=C1C3(C)C)[C@]1(OC(C)=O)CO[C@@H]1C[C@@H]2O [PACLITAXEL]	> 0.102 µM	> 0.102 µM	> 0.102 µM	0.0565 µM	> 0.102 µM																
CCN(CC)CCCCNc1ncc2cc(-c3cc(OC)cc(OC)c3)c(NC(=O)NC(C)(C)C)nc2n1 [PD-173074]						> 2 µM	> 2 µM	> 2 µM	> 2 µM	> 2 µM	> 2 µM	> 2 µM	> 2 µM	0.339 µM	> 2 µM	> 2 µM	> 2 µM	> 2 µM	> 2 µM	> 2 µM	IC50 (8305C): > 2 µM; IC50 (NCI-H292): > 2 µM; IC50 (CAL-12T): > 2 µM; IC50 (TGBC11TKB): > 2 µM; IC50 (BALL-1): > 2 µM; IC50 (SW900): > 2 µM; IC50 (VM-CUB-1): > 2 µM; IC50 (NCI-H2052): > 2 µM; IC50 (EPLC-272H): > 2 µM; IC50 (MKN-45): > 2 µM; IC50 (NCI-H1048): > 2 µM; IC50 (NCI-H1666): > 2 µM; IC50 (RH-18): > 2 µM; IC50 (CAL-27): > 2 µM; IC50 (HuO-3N1): 0.547 µM; IC50 (BFTC-905): > 2 µM; IC50 (MDA-MB-415): > 2 µM; IC50 (BPH-1): > 2 µM; IC50 (NBsusSR): > 2 µM
N[C@@H](CSC(c1ccccc1)(c1ccccc1)c1ccccc1)C(=O)O [S-TRITYL-L-CYSTEINE]	> 5.12 µM	> 5.12 µM	> 5.12 µM	1.2 µM	> 5.12 µM																
CC[C@H](CO)Nc1nc(NCc2ccccc2)c2ncn(C(C)C)c2n1 [SELICICLIB]	> 16 µM	> 16 µM	> 16 µM	9.96 µM	> 16 µM																
Cn1cnc2c(F)c(Nc3ccc(Br)cc3Cl)c(C(=O)NOCCO)cc21 [SELUMETINIB]						> 4 µM	> 4 µM	> 4 µM	1.74 µM	> 4 µM	3.33 µM	> 4 µM	> 4 µM	> 4 µM	> 4 µM	3.86 µM	> 4 µM	> 4 µM	> 4 µM	> 4 µM	IC50 (8305C): > 4 µM; IC50 (NCI-H292): 1.12 µM; IC50 (CAL-12T): > 4 µM; IC50 (TGBC11TKB): > 4 µM; IC50 (BALL-1): > 4 µM; IC50 (VM-CUB-1): 3.97 µM; IC50 (NCI-H2052): > 4 µM; IC50 (EPLC-272H): > 4 µM; IC50 (NCI-H1048): > 4 µM; IC50 (RH-18): > 4 µM; IC50 (CAL-27): 3.06 µM; IC50 (HuO-3N1): > 4 µM; IC50 (BFTC-905): 2.42 µM; IC50 (MDA-MB-415): > 4 µM; IC50 (BPH-1): 0.182 µM; IC50 (NBsusSR): > 4 µM
CCN(CC)CCNC(=O)c1c(C)[nH]c(/C=C2\C(=O)Nc3ccc(F)cc32)c1C [SUNITINIB]	> 8 µM	> 8 µM	> 8 µM	7.57 µM	7.58 µM																
